According to patent US8221658B2, “Mixed salts of diorganylphosphinic acids and carboxylic acids” (Clariant Finance (BVI) Limited, priority 2007, dated 2012):

Key:
[1] = Decomposition in differential thermal analysis (2% weight loss, atmosphere: air); assay type: physicochemical
Description: A mixture of 5 g of terephthalic acid and 3.9 g of aluminum trisdiethylphosphinate is reacted for 0.5 h at 350° C., as in example 1.

[2] = under nitrogen; cited from earlier work

Which “Decomposition in differential thermal analysis (2% weight loss)” value [1] does the source give for aluminum trisdiethylphosphinate here?
Its value is 355 °C.

And the Evaporation temperature [2]?
Its Evaporation temperature is 400 to 500 °C.

For aluminum terephthalate, which “Decomposition in differential thermal analysis (2% weight loss)” value [1] is on record?
The value was 298 °C.

For CC(C)CP(=O)([O-])CC(C)C.CC(C)CP(=O)([O-])CC(C)C.CC(C)CP(=O)([O-])CC(C)C.[Al+3] [aluminum salt of diisobutylphosphinic acid], which Evaporation temperature [2] is on record?
The Evaporation temperature was 300 to 400 °C.

For CCP(=O)([O-])CC.O=C([O-])c1ccc(C(=O)[O-])cc1.[Al+3] [Example 4, aluminum mono(diethylphosphinate)terephthalate], which “Decomposition in differential thermal analysis (2% weight loss)” value [1] is on record?
Its value is 425 °C.
